Measured values published in patent US20240269139A1, “COMPOUNDS FOR TARGETED PROTEIN DEGRADATION OF KINASES” (DANA-FARBER CANCER INSTITUTE, INC., priority 2020, published 2024).

Target: protein kinases (human kinome)
Type: cell-based
Conditions: for Kinase hits: kinases significantly downregulated vs DMSO (fold change cutoff −1.25, P-value<0.01), ≤8 h, 0.1-5 μM degrader, 7 cell lines; for Total no. kinase hits: number of degraded kinases per library compound; for logFC: BTK (Q06187-2), experiment wp055; for logFC of BTK (Q06187-2): Experiment wp055; for kinases the bifunctional compound degrades: as stated for the structure in the embodiments
Description: Although development of targeted protein degraders requires a POI binder, among already-liganded proteins such as kinases, it was hypothesized that different targets would have a different propensity for current approaches to degrader-mediated destruction, which was termed ‘degradability’. […] It was rationalized that the probability of identifying the same kinase as a false positive in multiple treatments is low, therefore this analysis served to also assess the robustness of our data and subsequent interpretations. […] Overall, 62 protein kinases were degraded in more than 10 independent treatments, and remarkably, 9 of these (CDK4, AURKA, FER, WEE1, BLK. LIMK2, CDK6, GAK, LIMK1) were each degraded in at least 40 of the 154 independent treatments, emphasizing their predisposition to induced degradation (FIG. 1G; Appendix I).
Next, the frequency of degradation assessment was corrected for over-representation of molecules in the full dataset by omitting replicate profiling of compounds under different experimental conditions, to remove any bias. […] Unsurprisingly, the top degradable kinases mirror those from the previous analysis (CDK4, AURKA, FER, WEE1, BLK), confirming that in sufficiently large datasets, even with over-representation of certain molecules, frequency of degradation is a good measure of general tractability.

## Cc1c(NC(=O)c2ccc(C(C)(C)C)cc2)cccc1-c1cn(C)c(=O)c(Nc2ccc(C(=O)N3CCN(CCCCCCNC(=O)COc4cccc5c4C(=O)N(C4CCC(=O)NC4=O)C5=O)CC3)cc2)n1 (centres unmarked) [DD-04-118]
  Kinase hits: BTK
  Total no. kinase hits: 1

## Cc1c(NC(=O)c2ccc(C(C)(C)C)cc2)cccc1-c1cn(C)c(=O)c(Nc2ccc(C(=O)N3CCN(CCCCCCNC(=O)CNc4cccc5c4C(=O)N(C4CCC(=O)NC4=O)C5=O)CC3)cc2)n1 (centres unmarked) [DD.03.171]
  logFC: −3.077
  logFC of BTK (Q06187-2): −3.077

## Cc1c(NC(=O)c2ccc(C(C)(C)C)cc2)cccc1-c1cn(C)c(=O)c(Nc2ccc(C(=O)N3CCN(CCCCCCNC(=O)COc4cccc5c4C(=O)N(C4CCC(=O)NC4=O)C5=O)CC3)cc2)n1 (centres unmarked) [DD.04.118]
  logFC: −3.263
  logFC of BTK (Q06187-2): −3.263

## COc1cc(N2CCN(CCOCCOCCC(=O)N[C@H](C(=O)N3C[C@H](O)C[C@H]3C(=O)N[C@@H](C)c3ccc(-c4scnc4C)cc3)C(C)(C)C)CC2)ccc1Nc1ncc2c(n1)N(C)c1ccccc1C(=O)N2CC(F)(F)F [FMF-03-178-1]
  Kinase hits: BLK, CSK
  Total no. kinase hits: 2

## O=C1CCC(N2C(=O)c3cccc(NCCOCCOCCOCCOCCC(=O)Nc4cccc(CN5CCC(NC(=O)c6[nH]ncc6NC(=O)c6c(Cl)cccc6Cl)CC5)c4)c3C2=O)C(=O)N1 (centres unmarked) [FMF-04-147-1]
  kinases the bifunctional compound degrades: CDK11A, CDK9, CLK1, GSK3A, GSK3B, PIK3CG, and SGK3
  Kinase hits: CDK11A, CDK9, CLK1, GSK3A, GSK3B, PIK3CG, SGK3
  Total no. kinase hits: 7

## Cc1ncsc1-c1ccc([C@H](C)NC(=O)[C@@H]2C[C@@H](O)CN2C(=O)[C@@H](NC(=O)CCOCCOCCN2CCN(c3ccc(Nc4ncc(Cl)c(Nc5ccccc5S(=O)(=O)C(C)C)n4)cc3)CC2)C(C)(C)C)cc1 [FMF-06-098-1, (2S,4R)-1-((S)-2-(3-(2-(2-(4-(4-((5-chloro-4-((2-(isopropylsulfonyl)phenyl)amino)pyrimidin-1320 2-yl)amino)phenyl)piperazin-I-yl)ethoxy)ethoxy)propanamido)-3,3-dimethylbutanoyl)-4-1321 hydroxy-N—((S)-1-(4-(4-methylthiazol-5-yl)phenyl)ethyl)pyrrolidine-2-carboxamide]
  kinases the bifunctional compound degrades: AAK1, ABL2, AURKA, AURKB, BUB1B, CDC7, CDK1, CDK12, CDK13, CDK2, CDK4, CDk6, CDK7, CDK9, CHEK1, CSNK1D. EPHA1, FER, FGFR1, GAK, IRAK4, ITK, LIMK2, MAP4K2, MAP4K3, MAPK6, MAPK7, MARK4, MELK, PKN3, PLK4, PRKAA1, PTK2, PTK6, RPS6KA4, SIK2, STK35, TNK2. UHMK1, ULK1, and WEE1
  Kinase hits: AAK1, ABL2, AURKA, AURKB, BUB1B, CDC7, CDK1, CDK12, CDK13, CDK2, CDK4, CDk6, CDK7, CDK9, CHEK1, CSNK1D, EPHA1, FER, FGFR1, GAK, IRAK4, ITK, LIMK2, MAP4K2, MAP4K3, MAPK6, MAPK7, MARK4, MELK, PKN3, PLK4, PRKAA1, PTK2, PTK6, RPS6KA4, SIK2, STK35, TNK2, UHMK1, ULK1, WEE1
  Total no. kinase hits: 42

## O=C(COc1cccc2c1C(=O)N(C1CCC(=O)NC1=O)C2=O)NCCCCCCCC(=O)NC1(c2ccc(-c3nc4ccn5c(=O)[nH]nc5c4cc3-c3ccccc3)cc2)CCC1 (centres unmarked) [INY-01-140-1]
  kinases the bifunctional compound degrades: PDK1, PDK2, and PDK3
  Kinase hits: PDK1, PDK2, PDK3
  Total no. kinase hits: 3

## C[C@@H]1C[C@@H](O)c2ncnc(N3CCN(C(=O)[C@H](CNCCCCCCCCNC(=O)COc4cccc5c4C(=O)N(C4CCC(=O)NC4=O)C5=O)c4ccc(Cl)cc4)CC3)c21 (some centres unmarked) [INY-02-164]
  Kinase hits: AKT1, AKT2, AKT3, BCKDK, PDK1
  Total no. kinase hits: 5

## C[C@@H]1C[C@@H](O)c2ncnc(N3CCN(C(=O)[C@H](CNCCCCCCCCCCc4cccc5c4C(=O)N(C4CCC(=O)NC4=O)C5=O)c4ccc(Cl)cc4)CC3)c21 (some centres unmarked) [INY-03-041-01]
  Kinase hits: AKT1, AKT2, AKT3, CDK4, MAPK6, STK17A
  Total no. kinase hits: 6

## Cc1ncsc1-c1ccc([C@H](C)NC(=O)[C@@H]2C[C@@H](O)CN2C(=O)[C@@H](NC(=O)CCCCOc2ccccc2-c2ccc3nc(-c4cccnc4N)n(-c4ccc(C5(N)CCC5)cc4)c3n2)C(C)(C)C)cc1 [INY-04-125-01]
  kinases the bifunctional compound degrades: LATS1 and STK17A
  Kinase hits: LATS1, STK17A
  Total no. kinase hits: 2

## Cc1cnc(Nc2ccc(N3CCN(CCOCCOCCNC(=O)COc4cccc5c4C(=O)N(C4CCC(=O)NC4=O)C5=O)CC3)cc2)nc1Nc1cccc(S(=O)(=O)NC(C)(C)C)c1 (centres unmarked) [JWG-118]
  kinases the bifunctional compound degrades: AAK1, AURKA, BMP2K, GAK, and WEE1
  Kinase hits: AAK1, AURKA, BMP2K, GAK, WEE1
  Total no. kinase hits: 5

## CS(=O)(=O)c1ccc(-c2cccn3nc(Nc4cccc(N5CCN(CCCCCCNC(=O)COc6cccc7c6C(=O)N(C6CCC(=O)NC6=O)C7=O)CC5)c4)nc23)cc1 (centres unmarked) [JWG-120]
  kinases the bifunctional compound degrades: AAK1 and AURKA
  Kinase hits: AAK1, AURKA
  Total no. kinase hits: 2

## Cc1cnc(Nc2ccc(N3CCN(CCOCCOCCC(=O)N[C@H](C(=O)N4C[C@H](O)C[C@H]4C(=O)N[C@@H](C)c4ccc(-c5scnc5C)cc4)C(C)(C)C)CC3)cc2)nc1Nc1cccc(S(=O)(=O)NC(C)(C)C)c1 [JWG-122]
  kinases the bifunctional compound degrades: AAK1 and GAK
  Kinase hits: AAK1, GAK
  Total no. kinase hits: 2

## Cc1cnc(Nc2ccc(N3CCN(CCCCCCC(=O)N[C@H](C(=O)N4C[C@H](O)C[C@H]4C(=O)N[C@@H](C)c4ccc(-c5scnc5C)cc4)C(C)(C)C)CC3)cc2)nc1Nc1cccc(S(=O)(=O)NC(C)(C)C)c1 [JWG-123]
  Kinase hits: AAK1, CDK16, WEE1, GAK, MARK4, NEK9, RPS6KB1, SIK2, SIK3, SNRK, STKI7A, STK17B
  Total no. kinase hits: 12

## Cc1ncsc1-c1ccc([C@H](C)NC(=O)[C@@H]2C[C@@H](O)CN2C(=O)[C@@H](NC(=O)CCCCCCc2ccc(Nc3ncc4c(n3)-c3ccccc3NC(=O)N4)cc2)C(C)(C)C)cc1 [JWG-148]
  kinases the bifunctional compound degrades: ABL2, EPHB2, SIK2, and TYK2
  Kinase hits: ABL2, EPHB2, SIK2, TYK2
  Total no. kinase hits: 4

## CC(C)S(=O)(=O)c1ccccc1Nc1nc(Nc2ccc(N3CCN(CCOCCOCCNC(=O)CNc4ccc5c(c4)C(=O)N(C4CCC(=O)NC4=O)C5=O)CC3)cc2)ncc1Cl (centres unmarked) [LT2-49, N-(2-(2-(2-(4-(4-((5-chloro-4-((2-(isopropylsulfonyl)phenyl)amino)pyrimidin-2-yl)amino)phenyl)piperazin-1-yl)ethoxy)ethoxy)ethyl)-2-((2-(2,6-dioxopiperidin-3-yl)-1,3-dioxoisoindolin-5-yl)amino)acetamide]
  kinases the bifunctional compound degrades: CDK4, AURKA, WEE1, BLK, FER, CDK6, LIMK2, AAK1, CDK5, CDK2, ITK, CDK17, LCK, PTK2B, CDK9, CDK7, CDK13, PRKAA1, CDK12, BMP2K, and STK10
  Kinase hits: CDK4, AURKA, WEE1, BLK, FER, CDK6, LIMK2, AAK1, CDK5, CDK2, ITK, CDK17, LCK, PTK2B, CDK9, CDK7, CDK13, PRKAA1, CDK12, BMP2K, STK10
  Total no. kinase hits: 21

## CNC(=O)c1ccccc1Nc1cc(Nc2ccc(N3CCN(CCOCCOCCNC(=O)CNc4cccc5c4C(=O)N(C4CCC(=O)NC4=O)C5=O)CC3)cc2OC)ncc1C(F)(F)F (centres unmarked) [MFH-5-103-1]
  kinases the bifunctional compound degrades: AURKA, CDK1O, CDK7, MAPK7, PTK2B, RPS6KA1, RPS6KA3, STK33, and WEE1
  Kinase hits: AURKA, CDK10, CDK7, MAPK7, PTK2B, RPS6KA1, RPS6KA3, STK33, WEE1
  Total no. kinase hits: 9

## CCc1cnn2c(N(Cc3ccc(N)nc3)C(=O)CCOCCOCCOCCNC(=O)CNc3cccc4c3C(=O)N(C3CCC(=O)NC3=O)C4=O)cc(N3CCCC[C@H]3CCO)nc12 (some centres unmarked) [MFH-5-115-2]
  kinases the bifunctional compound degrades: CDK4. AURK4. WEE1. STK17A, PLK1, BUB1, TTK, UHMK1, MAP3K1, BUB1B, RIOK2, NUAK1, PIM2, and CSNK1A1
  Kinase hits: CDK4, AURK4, WEE1, STK17A, PLK1, BUB1, TTK, UHMK1, MAP3K1, BUB1B, RIOK2, NUAK1, PIM2, CSNK1A1
  Total no. kinase hits: 14
